Reference: patent US20080248012A1, “Erythrocyte Function Modifying Substance” (KEIO UNIVERSITY, priority 2004, published 2008)
Entries after “also recorded” stand apart in the source; their conditions may differ.

Tested on: human erythrocytes
Assay: ATP release from erythrocytes at adjusted oxygen / CO2 partial pressure, luciferin assay
Format: cell-based
Details: for ATP release from erythrocytes in relation to oxygen partial pressure: PO2 0-150 mmHg, 37° C., 5 min, bezafibrate 10^−4 mol/L (30 min), 100% CO gas 1 min, NO 0.5 equivalents to hemoglobin; for ATP release at various CO2 partial pressures: PCO2 0 to 80 mmHg, 5 minutes
Protocol: Human peripheral blood sample (20 ml) was taken, heparinized and centrifuged at 2000 rpm for 7 minutes. The erythrocyte pellet was collected and washed. Then, an erythrocyte suspension (1×10^7 cells/ml) was prepared with Krebs buffer. A tightly sealed cuvette containing 1.8 ml of Krebs buffer in which oxygen concentration is adjusted at a desired level within a range of 0-150 mmHg was incubated at 37° C. A 200 μl aliquot of the erythrocyte suspension was injected into the tightly sealed cuvette with a microsyringe. After 5 minutes, the cuvette was placed in ice at 4° C. to terminate the reaction. A 200 μd sample was taken while it was still 4° C., and centrifuged. The ATP in the resultant supernatant was quantitatively determined by luciferin assay.
In this example, the effects of carbon monoxide-saturated erythrocytes (CO-Hb) and NO treated erythrocytes (αNO-Hb) on ATP release were examined. The method was as described in Example 1 above. In order to examine the effect of NO, an experiment was conducted using erythrocytes prepared as described below. Briefly, collected erythrocytes were completely deoxygenated by feeding argon gas. Then, NO-glutathione was added thereto so that the concentration of this substance to the concentration of Hb was 1:2. Several minutes after the addition, the erythrocytes were centrifuged and recovered. The hemoglobin contained in the above erythrocytes is expressed as “αNO-Hb”.
Briefly, adenosine was added to the extracellular fluid of erythrocytes for 5 minutes. To a tightly sealed cuvette containing Krebs buffer adjusted to have a desired oxygen partial pressure within a range of 0-150 mmHg, the erythrocyte suspension was injected and the reaction was terminated 1 minute thereafter.
The method used was according to the method in Example 1. The amounts of ATP release when erythrocytes were exposed to various CO2 partial pressures (PCO2) from 0 to 80 mmHg for 5 minutes were measured.

In the case of Nc1ncnc2c1ncn2[C@@H]1O[C@H](CO)[C@@H](O)[C@H]1O [adenosine], the “enhancement of ATP release under normal oxygen concentration” value (1 μmol/L adenosine in extracellular fluid 5 min) was “enhanced almost two times”, the “enhancement of ATP release under no oxygen or low oxygen” value (1 μmol/L adenosine in extracellular fluid 5 min, then no/low oxygen 1 minute) was “enhanced almost two times; also recorded: increases ATP release about two times; also recorded: enhanced about two times” and the “ATP release enhancement, adenosine combined with carbon dioxide” value (Normoxia, raised PCO2, in the presence of adenosine) was “synergetic high effect”.
In the case of O=S(=O)(O)c1cc(N=C=S)ccc1C=Cc1ccc(N=C=S)cc1S(=O)(=O)O [DIDS, 4,4′-diisothiocyanate-stilbene-2,2′-disulfonic acid], the “ATP release increase due to low oxygen” value (10^−4 mol/L DIDS, oxygen partial pressures of 0-140 mmHg) was “inhibits ATP release increase due to low oxygen”, the “amount of ATP release, DIDS addition vs no addition” value (CO(+) erythrocytes, presence/absence of adenosine) was “no difference” and the “ATP release increase due to low oxygen, concentration-dependent effect” value (CO-untreated erythrocytes, Anoxia 0 mmHg vs Normoxia) was “inhibited depending on the concentration of DIDS”.
[N]=O [NO, nitric oxide] was tested, and the “ATP release from erythrocytes in relation to oxygen partial pressure” value (shortened to “ATP release from erythrocytes”) was “released ATP constantly regardless of the oxygen concentration”.
With N[C@@H](CCC(=O)N[C@@H](CSN=O)C(=O)NCC(=O)O)C(=O)O [NO derivative, NO-glutathione] the “ATP release from erythrocytes” value was “released ATP constantly regardless of the oxygen partial pressure”.
O=C=O [carbon dioxide] was tested, and the “ATP release at various CO2 partial pressures” value (Anoxia (no oxygen state)) was “not affected by PCO2” and the “ATP release at various CO2 partial pressures” value (Normoxia) was “increased at 60-80 mmHg”.
In the case of [C-]#[O+] [CO, carbon monoxide], the “ATP release from erythrocytes” value was “this ability was completely eliminated” and the “ATP release from erythrocytes” value (listed as carbon monoxide) was “released little ATP regardless of the oxygen partial pressure”.
